This is an account of results in ChEMBL document CHEMBL1125944, “Imidazo[1,2-a]piperazines as mechanistic inhibitors of serine proteinases” (Bioorg Med Chem Lett, 1991).

SMILES strings stand for the structures.

The assay addresses T1, Neutrophil elastase (Homo sapiens, UniProt P08246).
T1 sequence (P08246 whole entry): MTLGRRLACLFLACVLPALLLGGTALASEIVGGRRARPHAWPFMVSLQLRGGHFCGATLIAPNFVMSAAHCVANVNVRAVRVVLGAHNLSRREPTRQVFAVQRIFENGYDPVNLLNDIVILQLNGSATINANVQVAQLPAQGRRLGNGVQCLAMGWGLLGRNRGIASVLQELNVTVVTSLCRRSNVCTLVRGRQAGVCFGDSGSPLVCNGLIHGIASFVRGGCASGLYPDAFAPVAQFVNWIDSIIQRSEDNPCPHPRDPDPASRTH
Briefly: Compound was tested for its inhibitory activity against human leukocyte Elastase (HLE).

As to `CC(C)C1N=C2CN(C3Cc4ccccc4C3)C(=O)[C@H](C(C)C)N2C1(O)C(F)(F)F` (stereo partly specified), 8.74 µM corresponded to half-maximal inhibition (IC50).
